Target: T1, Cdc7 (BEV coexpressed huCDC7/DBF4) (Homo sapiens, UniProt O00311)
T1 construct: made in house; host or cells: BEV (baculovirus expression vector) co-expression; insect cells are implied but no cell line is named
Test: Cdc7 enzyme inhibition assay ([33P]ATP, biotinylated peptide substrate, FlashPlate)
Type: biochemical
Details: Table 3; enzyme inhibition data (Ki)
Protocol: Cdc7 (BEV coexpressed huCDC7/DBF4) is prepared internally. Cdc7 assays are conducted as follows with final concentrations as listed. […] Reactions are quenched after 1 hr by the addition of 90 μL stop buffer (50 mM EDTA, 2M NaCl). […] (Ki) for exemplary compounds.

T1 sequence (O00311 whole entry): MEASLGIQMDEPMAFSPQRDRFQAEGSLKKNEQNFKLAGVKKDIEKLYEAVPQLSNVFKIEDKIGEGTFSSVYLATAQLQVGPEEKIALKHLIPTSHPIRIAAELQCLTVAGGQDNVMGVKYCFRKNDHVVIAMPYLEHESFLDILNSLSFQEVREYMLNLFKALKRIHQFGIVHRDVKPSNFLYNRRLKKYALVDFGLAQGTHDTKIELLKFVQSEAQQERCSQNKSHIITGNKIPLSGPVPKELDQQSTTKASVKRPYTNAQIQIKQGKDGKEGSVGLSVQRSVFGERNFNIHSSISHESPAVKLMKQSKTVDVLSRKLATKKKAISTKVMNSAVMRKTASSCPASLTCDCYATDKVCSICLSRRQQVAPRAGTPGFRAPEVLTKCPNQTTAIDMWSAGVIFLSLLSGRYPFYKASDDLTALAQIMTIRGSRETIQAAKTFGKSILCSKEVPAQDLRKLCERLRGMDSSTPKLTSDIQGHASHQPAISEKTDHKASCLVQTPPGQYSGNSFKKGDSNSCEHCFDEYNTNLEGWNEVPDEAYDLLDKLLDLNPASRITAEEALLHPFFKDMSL
T1 sequence (Q9UBU7 whole entry partner): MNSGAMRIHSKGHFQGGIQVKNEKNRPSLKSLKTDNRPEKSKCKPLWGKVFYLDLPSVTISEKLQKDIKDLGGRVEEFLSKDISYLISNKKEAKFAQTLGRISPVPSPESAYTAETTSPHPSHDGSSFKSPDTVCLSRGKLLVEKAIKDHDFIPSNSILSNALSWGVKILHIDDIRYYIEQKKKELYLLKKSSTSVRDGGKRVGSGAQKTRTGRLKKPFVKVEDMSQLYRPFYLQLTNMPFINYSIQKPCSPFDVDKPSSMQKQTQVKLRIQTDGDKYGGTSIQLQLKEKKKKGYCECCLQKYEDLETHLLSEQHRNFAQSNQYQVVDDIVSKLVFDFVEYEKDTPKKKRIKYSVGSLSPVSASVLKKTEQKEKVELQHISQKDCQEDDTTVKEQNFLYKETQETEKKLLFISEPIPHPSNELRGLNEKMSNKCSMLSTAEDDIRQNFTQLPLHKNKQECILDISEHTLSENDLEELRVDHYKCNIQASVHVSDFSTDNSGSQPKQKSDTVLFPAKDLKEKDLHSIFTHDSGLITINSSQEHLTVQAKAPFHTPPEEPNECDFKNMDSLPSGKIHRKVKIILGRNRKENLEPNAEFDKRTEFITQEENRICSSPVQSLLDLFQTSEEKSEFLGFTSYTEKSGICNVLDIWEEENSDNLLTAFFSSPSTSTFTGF

| Ki [nM] | SMILES |
| --- | --- |
| < 10 | Clc1cc(-c2c[nH]c3ncccc23)cc(NC2CCCC(NCc3nccs3)C2)n1 (centres unmarked) [Example 290, N-[6-chloro-4-(1H-pyrrolo[2,3-b]pyridin-3-yl)pyridin-2-yl]-N′-(1,3-thiazol-2-ylmethyl)cyclohexane-1,3-diamine] |
| < 10 | Clc1cc(-c2c[nH]c3ncccc23)cc(NC2CCCC(NCc3cccc(CN4CCCCC4)c3)C2)n1 (centres unmarked) [Example 291, N-[6-chloro-4-(1H-pyrrolo[2,3-b]pyridin-3-yl)pyridin-2-yl]-N′-[3-(piperidin-1-ylmethyl)benzyl]cyclohexane-1,3-diamine] |
| < 10 | CCOCC(=O)NC1CCCC(Nc2cc(-c3c[nH]c4ncccc34)cc(Cl)n2)C1 (centres unmarked) [Example 292, N-(3-{[6-chloro-4-(1H-pyrrolo[2,3-b]pyridin-3-yl)pyridin-2-yl]amino}cyclohexyl)-2-ethoxyacetamide] |
| < 10 | O=C(COc1ccccc1)NC1CCCC(Nc2cc(-c3c[nH]c4ncccc34)cc(Cl)n2)C1 (centres unmarked) [Example 293, N-(3-{[6-chloro-4-(1H-pyrrolo[2,3-b]pyridin-3-yl)pyridin-2-yl]amino}cyclohexyl)-2-phenoxyacetamide] |
| < 10 | O=C(NC1CCCC(Nc2cc(-c3c[nH]c4ncccc34)cc(Cl)n2)C1)c1cnccn1 (centres unmarked) [Example 294, N-(3-{[6-chloro-4-(1H-pyrrolo[2,3-b]pyridin-3-yl)pyridin-2-yl]amino}cyclohexyl)pyrazine-2-carboxamide] |
| < 10 | O=C(NC1CCCC(Nc2cc(-c3c[nH]c4ncccc34)cc(Cl)n2)C1)C1CCN1 (centres unmarked) [Example 295, N-(3-{[6-chloro-4-(1H-pyrrolo[2,3-b]pyridin-3-yl)pyridin-2-yl]amino}cyclohexyl)azetidine-2-carboxamide] |
| < 10 | CC(C)(C)OC(=O)N1CCC1C(=O)NC1CCCC(Nc2cc(-c3c[nH]c4ncccc34)cc(Cl)n2)C1 (centres unmarked) [Example 296, tert-butyl 2-[(3-{[6-chloro-4-(1H-pyrrolo[2,3-b]pyridin-3-yl)pyridin-2-yl]amino}cyclohexyl)carbamoyl]azetidine-1-carboxylate] |
| < 10 | C=CCNC(=O)NC1CCC(Nc2cc(-c3c[nH]c4ncccc34)cc(Cl)n2)CC1 (centres unmarked) [Example 297, 1-(4-{[6-chloro-4-(1H-pyrrolo[2,3-b]pyridin-3-yl)pyridin-2-yl]amino}cyclohexyl)-3-prop-2-en-1-ylurea] |
| < 10 | Cn1cnc(S(=O)(=O)NCC(C)(C)CNc2cc(-c3c[nH]c4ncccc34)cc(Cl)n2)c1 [Example 298, N-(3-{[6-chloro-4-(1H-pyrrolo[2,3-b]pyridin-3-yl)pyridin-2-yl]amino}-2,2-dimethylpropyl)-1-methyl-1H-imidazole-4-sulfonamide] |
| < 10 | O=S(=O)(NC1CCCC(Nc2cc(-c3c[nH]c4ncccc34)cc(Cl)n2)C1)c1ccco1 (centres unmarked) [Example 299, N-(3-{[6-chloro-4-(1H-pyrrolo[2,3-b]pyridin-3-yl)pyridin-2-yl]amino}cyclohexyl)furan-2-sulfonamide] |
| < 10 | O=S(=O)(NC1CCCC(Nc2cc(-c3c[nH]c4ncccc34)cc(Cl)n2)C1)c1cccnc1 (centres unmarked) [Example 300, N-(3-{[6-chloro-4-(1H-pyrrolo[2,3-b]pyridin-3-yl)pyridin-2-yl]amino}cyclohexyl)pyridine-3-sulfonamide] |

Further lines, the compound ahead of its results:

| SMILES | Ki [nM] |
| --- | --- |
| COc1cnc2[nH]cc(-c3cc(Cl)nc(NC4CCC(CC5CCC(N(C)C)CC5)CC4)c3)c2c1 (centres unmarked) [Example 259, 6-chloro-N-(4-{[4-(dimethylamino)cyclohexyl]methyl}cyclohexyl)-4-(5-methoxy-1H-pyrrolo[2,3-b]pyridin-3-yl)pyridin-2-amine] | < 10 |
| COc1cnc2[nH]cc(-c3cc(Cl)nc(NC4CCCC(NS(=O)(=O)C5CC5)C4)c3)c2c1 (centres unmarked) [Example 260, N-(3-{[6-chloro-4-(5-methoxy-1H-pyrrolo[2,3-b]pyridin-3-yl)pyridin-2-yl]amino}cyclohexyl)cyclopropanesulfonamide] | < 10 |
| COc1cnc2[nH]cc(-c3cc(Cl)nc(NC4CCCC(NC(C)=O)C4)c3)c2c1 (centres unmarked) [Example 261, N-(3-{[6-chloro-4-(5-methoxy-1H-pyrrolo[2,3-b]pyridin-3-yl)pyridin-2-yl]amino}cyclohexyl)acetamide] | < 10 |
| COc1cnc2[nH]cc(-c3cc(Cl)nc(NC4CCCC(NS(=O)(=O)c5cccs5)C4)c3)c2c1 (centres unmarked) [Example 262, N-(3-{[6-chloro-4-(5-methoxy-1H-pyrrolo[2,3-b]pyridin-3-yl)pyridin-2-yl]amino}cyclohexyl)thiophene-2-sulfonamide] | < 10 |
| COc1cnc2[nH]cc(-c3cc(Cl)nc(NC4CCCC(NC(=O)CN5CCCC5)C4)c3)c2c1 (centres unmarked) [Example 263, N-(3-{[6-chloro-4-(5-methoxy-1H-pyrrolo[2,3-b]pyridin-3-yl)pyridin-2-yl]-amino}cyclohexyl)-2-(pyrrolidin-1-yl)acetamide] | < 10 |
| Clc1cc(-c2c[nH]c3ncccc23)nc(NCC2CCCO2)n1 (centres unmarked) [Example 265, 4-chloro-6-(1H-pyrrolo[2,3-b]pyridin-3-yl)-N-(tetrahydrofuran-2-ylmethyl)pyrimidin-2-amine] | < 10 |
| Clc1cc(-c2c[nH]c3ncccc23)nc(NCc2ccncc2)n1 [Example 266, 4-chloro-N-(pyridin-4-ylmethyl)-6-(1H-pyrrolo[2,3-b]pyridin-3-yl)pyrimidin-2-amine] | < 10 |
| Clc1cc(-c2c[nH]c3ncccc23)nc(NCc2cccnc2)n1 [Example 267, 4-chloro-N-(pyridin-3-ylmethyl)-6-(1H-pyrrolo[2,3-b]pyridin-3-yl)pyrimidin-2-amine] | < 10 |
| Clc1cc(-c2c[nH]c3ncccc23)nc(NCc2ccccn2)n1 [Example 268, 4-chloro-N-(pyridin-2-ylmethyl)-6-(1H-pyrrolo[2,3-b]pyridin-3-yl)pyrimidin-2-amine] | < 10 |
| CN(C)c1nc(Cl)cc(-c2c[nH]c3ncccc23)n1 [Example 269, 4-chloro-N,N-dimethyl-6-(1H-pyrrolo[2,3-b]pyridin-3-yl)pyrimidin-2-amine] | < 10 |
| O=C(N[C@H]1CC[C@H](Nc2nc(Cl)cc(-c3c[nH]c4ncccc34)n2)CC1)C1CC1 [Example 271, N-(trans-4-{[4-chloro-6-(1H-pyrrolo[2,3-b]pyridin-3-yl)pyrimidin-2-yl]amino}cyclohexyl)cyclopropanecarboxamide] | < 10 |
| O=C(NC1CCCC(Nc2nc(Cl)cc(-c3c[nH]c4ncccc34)n2)C1)C1CC1 (centres unmarked) [Example 272, N-(3-{[4-chloro-6-(1H-pyrrolo[2,3-b]pyridin-3-yl)pyrimidin-2-yl]amino}cyclohexyl)cyclopropanecarboxamide] | < 10 |
| Clc1cc(-c2c[nH]c3ncccc23)nc(NC2CCCC(NC3CCC3)C2)n1 (centres unmarked) [Example 274, N-[4-chloro-6-(1H-pyrrolo[2,3-b]pyridin-3-yl)pyrimidin-2-yl]-N′-cyclobutylcyclohexane-1,3-diamine] | < 10 |
| Clc1cc(-c2c[nH]c3ncccc23)nc(N[C@H]2CC[C@H](NC3CCC3)CC2)n1 [Example 275, trans-N-[4-chloro-6-(1H-pyrrolo[2,3-b]pyridin-3-yl)pyrimidin-2-yl]-N′-cyclobutylcyclohexane-1,4-diamine] | < 10 |
| COCCNc1nc(Cl)cc(-c2c[nH]c3ncccc23)n1 [Example 279, 4-chloro-N-(2-methoxyethyl)-6-(1H-pyrrolo[2,3-b]pyridin-3-yl)pyrimidin-2-amine] | < 10 |
| O=C(Nc1ccccc1)N[C@H]1CC[C@H](Nc2nc(Cl)cc(-c3c[nH]c4ncccc34)n2)CC1 [Example 281, 1-(trans-4-{[4-chloro-6-(1H-pyrrolo[2,3-b]pyridin-3-yl)pyrimidin-2-yl]amino}cyclohexyl)-3-phenylurea] | < 10 |
| O=S(=O)(N[C@H]1CC[C@H](Nc2nc(Cl)cc(-c3c[nH]c4ncccc34)n2)CC1)C1CC1 [Example 282, N-(trans-4-{[4-chloro-6-(1H-pyrrolo[2,3-b]pyridin-3-yl)pyrimidin-2-yl]amino}cyclohexyl)cyclopropanesulfonamide] | < 10 |
| Cc1noc(C)c1S(=O)(=O)NC1CCC(Nc2cc(-c3c[nH]c4ncccc34)cc(Cl)n2)CC1 (centres unmarked) [Example 283, N-(4-{[6-chloro-4-(1H-pyrrolo[2,3-b]pyridin-3-yl)pyridin-2-yl]amino}cyclohexyl)-3,5-dimethyl-1,2-oxazole-4-sulfonamide] | < 10 |
| COC[C@H](Cc1ccccc1)Nc1cc(-c2c[nH]c3ncccc23)cc(Cl)n1 [Example 284, 6-chloro-N-[(2S)-1-methoxy-3-phenylpropan-2-yl]-4-(1H-pyrrolo[2,3-b]pyridin-3-yl)pyridin-2-amine] | < 10 |
| Clc1cc(-c2c[nH]c3ncccc23)cc(NC2CCCC(NC3CCCC3)C2)n1 (centres unmarked) [Example 285, N-[6-chloro-4-(1H-pyrrolo[2,3-b]pyridin-3-yl)pyridin-2-yl]-N′-cyclopentylcyclohexane-1,3-diamine] | 10 to 100 |
| CCOC(=O)CNC(=O)NC1CCC(Nc2cc(-c3c[nH]c4ncccc34)cc(Cl)n2)CC1 (centres unmarked) [Example 286, ethyl N-[(4-{[6-chloro-4-(1H-pyrrolo[2,3-b]pyridin-3-yl)pyridin-2-yl]amino}cyclohexyl)carbamoyl]glycinate] | < 10 |
| CC(C)NC(=O)NC1CCC(Nc2cc(-c3c[nH]c4ncccc34)cc(Cl)n2)CC1 (centres unmarked) [Example 287, 1-(4-{[6-chloro-4-(1H-pyrrolo[2,3-b]pyridin-3-yl)pyridin-2-yl]amino}cyclohexyl)-3-propan-2-ylurea] | < 10 |
| CC(C)(C)NC(=O)NC1CCC(Nc2cc(-c3c[nH]c4ncccc34)cc(Cl)n2)CC1 (centres unmarked) [Example 288, 1-tert-butyl-3-(4-{[6-chloro-4-(1H-pyrrolo[2,3-b]pyridin-3-yl)pyridin-2-yl]amino}cyclohexyl)urea] | < 10 |
| COCC(=O)NC1CCC(Nc2cc(-c3c[nH]c4ncccc34)cc(Cl)n2)CC1 (centres unmarked) [Example 289, N-(4-{[6-chloro-4-(1H-pyrrolo[2,3-b]pyridin-3-yl)pyridin-2-yl]amino}cyclohexyl)-2-methoxyacetamide] | < 10 |

From patent US8435980B2 (AbbVie Inc., priority 2009, dated 2013)
